# Source: patent publication US20250304551A1 (SHANGHAI APEIRON THERAPEUTICS COMPANY LIMITED, priority 2022, published 2025)
# pIC50: −log10 of the molar value.
# How the values were obtained:
# [1] = biological target: T1, Human KIF18A (amino acid sequence 1-417) (Homo sapiens, UniProt Q8NI77); experiment: Enzyme activity detection experiment (ADP-Glo, KIF18A with tubulin and ATP); assay type: biochemical; conditions: tubulin 60 μg/mL, ATP 25 μM, KIF18A protein 2.5 nM, 120 minutes at ambient temperature, ADP-Glo chemiluminescence
# T1 construct: purchased Viva Biotech (Shanghai) Ltd
# In short: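 KIF18A (2.5 nM) was incubated with tubulin (60 μg/mL as added), ATP (25 μM) and serially diluted compound for 120 min at ambient temperature. ADP formed was detected by ADP-Glo: reagent for 30 min, then detection reagent for 30 min in the dark, with chemiluminescence read-out.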
# [2] = test system: OVCAR3 cells; experiment: Cell proliferation activity test, OVCAR3 (CyQUANT Direct); assay type: cell-based; conditions: Homo sapiens, OVCAR-3, 72 h, 3 days incubation, CyQUANT fluorescence detection, read-out: OVCAR-3 Cell Viability_IC50_nM
# In short: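 OVCAR3 cells seeded overnight, then exposed to compounds at 0-10 μM final (0.20% DMSO) for 3 days at 37° C. Cell number read by CyQUANT Direct fluorescence after 60 min at 37° C.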
# [3] = test system: HT29 cells; experiment: CyQuant cell proliferation activity test, HT29; assay type: cell-based; conditions: Homo sapiens, HT-29, 72 h, HT29 2000 cells per well, 3 days incubation, initial concentration 3000 nM, IC50 by XLFIT, read-out: HT-29 Cell Viability_IC50_nM
# In short: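 HT29 cells (2000/well, RPMI-1640 with 10% FBS) were plated overnight, then exposed to compound for 3 days at 37 °C, 5% CO2. Dosing was 9 concentrations, 3-fold dilutions from 3000 nM, in 0.20% DMSO. Proliferation was read with CyQuant reagent after 1 h, and IC50 derived from the curves.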
# T1 sequence (Q8NI77 1-417): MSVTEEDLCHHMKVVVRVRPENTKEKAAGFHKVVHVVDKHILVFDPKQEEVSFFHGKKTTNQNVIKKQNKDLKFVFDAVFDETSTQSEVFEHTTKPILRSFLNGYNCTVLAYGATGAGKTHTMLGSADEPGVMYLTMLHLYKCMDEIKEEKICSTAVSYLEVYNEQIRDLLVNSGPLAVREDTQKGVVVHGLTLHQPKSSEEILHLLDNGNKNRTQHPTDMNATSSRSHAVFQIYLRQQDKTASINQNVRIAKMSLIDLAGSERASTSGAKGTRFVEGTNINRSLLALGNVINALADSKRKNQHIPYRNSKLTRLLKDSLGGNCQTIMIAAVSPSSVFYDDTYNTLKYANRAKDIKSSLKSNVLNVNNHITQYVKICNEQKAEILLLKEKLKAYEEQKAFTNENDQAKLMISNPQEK
# T1 sequence (Q2XVP4 whole entry partner): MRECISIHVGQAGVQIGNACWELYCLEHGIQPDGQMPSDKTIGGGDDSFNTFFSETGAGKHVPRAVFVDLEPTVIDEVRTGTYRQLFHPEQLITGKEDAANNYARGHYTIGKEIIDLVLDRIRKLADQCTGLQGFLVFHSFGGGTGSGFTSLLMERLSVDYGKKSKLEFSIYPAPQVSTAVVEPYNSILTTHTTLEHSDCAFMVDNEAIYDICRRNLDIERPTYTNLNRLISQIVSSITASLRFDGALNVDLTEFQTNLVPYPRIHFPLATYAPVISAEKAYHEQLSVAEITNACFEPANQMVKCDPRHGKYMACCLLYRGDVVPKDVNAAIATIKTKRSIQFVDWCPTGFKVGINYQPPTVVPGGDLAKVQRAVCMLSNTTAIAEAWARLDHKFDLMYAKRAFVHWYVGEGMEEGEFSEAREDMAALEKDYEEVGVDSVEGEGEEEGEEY
# T1 sequence (P02554 whole entry partner): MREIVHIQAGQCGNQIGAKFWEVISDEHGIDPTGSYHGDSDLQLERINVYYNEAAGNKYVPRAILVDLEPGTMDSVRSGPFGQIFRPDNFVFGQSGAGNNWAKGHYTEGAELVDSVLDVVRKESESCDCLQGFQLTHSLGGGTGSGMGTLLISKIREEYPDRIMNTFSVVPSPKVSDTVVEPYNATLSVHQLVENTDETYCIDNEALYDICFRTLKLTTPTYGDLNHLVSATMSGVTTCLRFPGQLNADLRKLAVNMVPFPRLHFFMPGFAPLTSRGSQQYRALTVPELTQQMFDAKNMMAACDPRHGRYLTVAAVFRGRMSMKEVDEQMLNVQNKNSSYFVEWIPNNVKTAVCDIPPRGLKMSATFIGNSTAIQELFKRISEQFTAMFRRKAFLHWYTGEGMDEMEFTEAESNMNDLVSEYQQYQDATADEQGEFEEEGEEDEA
Structure (SMILES),pIC50 [1],pIC50 [2],pIC50 [3]
"Cc1cc(-c2nnc(-c3ccc(NS(=O)(=O)CCO)cc3N3CCC4(CC3)CC4)o2)nc(N2CCO[C@H](C)C2)n1 [Example 18, (R)-2-hydroxy-N-(4-(5-(6-methyl-2-(2-methylmorpholino)pyrimidin-4-yl)-1,3,4-oxadiazol-2-yl)-3-(6-azaspiro[2.5]octan-6-yl)phenyl)ethane-1-sulfonamide]",7.28,7.52,7.59
"COc1cc(-c2cn(-c3ccc(NS(=O)(=O)CCO)cc3N3CCC4(CC3)CC4)cn2)nc(N2CCC(F)(F)CC2)n1 [Example 11, N-(4-(4-(2-(4,4-difluoropiperidin-1-yl)-6-methoxypyrimidin-4-yl)-1H-imidazol-1-yl)-3-(6-azaspiro[2.5]octan-6-yl)phenyl)-2-hydroxyethane-1-sulfonamide]",6.60,6.79,6.50
"O=S(=O)(CCO)Nc1ccc(-c2nnc(-c3cc(O)nc(N4CCC(F)(F)CC4)n3)o2)c(N2CCC3(CC2)CC3)c1 [Example 21, N-(4-(5-(2-(4,4-difluoropiperidin-1-yl)-6-hydroxypyrimidin-4-yl)-1,3,4-oxadiazol-2-yl)-3-(6-azaspiro[2.5]octan-6-yl)phenyl)-2-hydroxyethane-1-sulfonamide]",7.17,5.79,< 5.52
"Cc1cc(N2CCC(F)(F)CC2)nc(-c2nnc(-c3ccc(NS(=O)(=O)CCO)cc3N3CCC4(CC3)CC4)o2)c1Cl [Example 26, N-(4-(5-(3-chloro-6-(4,4-difluoropiperidin-1-yl)-4-methylpyridin-2-yl)-1,3,4-oxadiazol-2-yl)-3-(6-azaspiro[2.5]octan-6-yl)phenyl)-2-hydroxyethane-1-sulfonamide]",6.54,6.12,5.90
"Cc1cc(-c2cn(-c3ccc(NS(=O)(=O)[C@H](C)CO)cc3N3CCC4(CC3)CC4)nn2)nc(N2CCC(F)(F)CC2)n1 [Example 83, (2R)—N-(3-{6-azaspiro[2.5]octan-6-yl}-4-{4-[2-(4,4-difluoropiperidin-1-yl)-6-methylpyrimidin-4-yl]-1H-1,2,3-triazol-1-yl}phenyl)-1-hydroxypropane-2-sulfonamide]",6.93,7.89,7.80
"Cc1cc(-c2cn(-c3ccc(NS(=O)(=O)C(C)(C)CO)cc3N3CCC4(CC3)CC4)nn2)nc(N2CCC(F)(F)CC2)n1 [Example 86, N-(3-{6-azaspiro[2.5]octan-6-yl}-4-{4-[2-(4,4-difluoropiperidin-1-yl)-6-methylpyrimidin-4-yl]-1H-1,2,3-triazol-1-yl}phenyl)-1-hydroxy-2-methylpropane-2-sulfonamide]",6.79,7.66,7.68
"Cc1cc(N2CCC(F)(F)CC2)nc(-c2nnc(-c3ccc(NS(=O)(=O)CCO)cc3N3CCC4(CC3)CC4)o2)n1 [Example 27, N-(4-(5-(4-(4,4-difluoropiperidin-1-yl)-6-methylpyrimidin-2-yl)-1,3,4-oxadiazol-2-yl)-3-(6-azaspiro[2.5]octan-6-yl)phenyl)-2-hydroxyethanesulfonamide]",6.91,6.06,4.61
"COc1cc(-c2cn(-c3ccc(NS(=O)(=O)CCO)cc3N3CCC4(CC3)CC4)nn2)c(F)c(N2CCC(F)(F)CC2)n1 [Example 63, N-(4-(4-(2-(4,4-difluoropiperidin-1-yl)-3-fluoro-6-methoxypyridin-4-yl)-1H-1,2,3-triazol-1-yl)-3-(6-azaspiro[2.5]octan-6-yl)phenyl)-2-hydroxyethane-1-sulfonamide]",6.36,6.97,6.82
"Cc1ccc2cc(-c3cn(-c4ccc(NS(=O)(=O)CCO)cc4N4CCC5(CC4)CC5)nn3)cc(N3CCC(F)(F)CC3)c2n1 [Example 74, N-(3-{6-azaspiro[2.5]octan-6-yl}-4-{4-[8-(4,4-difluoropiperidin-1-yl)-2-methylquinolin-6-yl]-1H-1,2,3-triazol-1-yl}phenyl)-2-hydroxyethane-1-sulfonamide]",6.09,6.92,6.90
"Cc1cc(-c2nnc(-c3ccc(NS(=O)(=O)CCO)cc3N3CCC4(CC3)CC4)o2)c(F)c(N2CCC(F)(F)CC2)n1 [Example 23, N-(4-(5-(2-(4,4-difluoropiperidin-1-yl)-3-fluoro-6-methylpyridin-4-yl)-1,3,4-oxadiazol-2-yl)-3-(6-azaspiro[2.5]octan-6-yl)phenyl)-2-hydroxyethane-1-sulfonamide]",6.82,6.94,6.93
"Cc1cc(-c2cn(-c3cnc(NS(=O)(=O)CCO)cc3N3CCC4(CC3)CC4)nn2)nc(N2CCC(F)(F)CC2)n1 [Example 67, N-(4-{6-azaspiro[2.5]octan-6-yl}-5-{4-[2-(4,4-difluoropiperidin-1-yl)-6-methylpyrimidin-4-yl]-1H-1,2,3-triazol-1-yl}pyridin-2-yl)-2-hydroxyethane-1-sulfonamide]",7.92,7.60,7.72
"Cc1cc(-c2cn(-c3ccc(NS(=O)(=O)CCO)cc3N3CCC4(CC3)CC4)nn2)nc(N2C3COCC2C3)n1 [Example 49, N-(4-(4-(2-(3-oxa-6-azabicyclo[3.1.1]heptan-6-yl)-6-methylpyrimidin-4-yl)-1H-1,2,3-triazol-1-yl)-3-(6-azaspiro[2.5]octan-6-yl)phenyl)-2-hydroxyethane-1-sulfonamide]",7.21,7.27,7.51
